Source: ChEMBL document CHEMBL3763037 (J Med Chem, 2016)
The source made the active and inactive calls. The calls are words filed in the database; no cut-off is given here.

How the values were obtained:
[1] = Oral bioavailability in Sprague-Dawley rat at 10 mg/kg by LC-MS/MS analysis; assay type: ADME, organism-based; details: Sprague-Dawley, in vivo
[2] = AUC in Sprague-Dawley rat at 10 mg/kg, po by LC-MS/MS analysis; assay type: ADME, organism-based; details: Sprague-Dawley, in vivo
[3] = Cmax in Sprague-Dawley rat at 10 mg/kg, po by LC-MS/MS analysis; assay type: ADME, organism-based; set-up: dose 10 mg/kg, route oral; details: in vivo
[4] = Volume of distribution at steady state in Sprague-Dawley rat at 5 mg/kg, iv by LC-MS/MS analysis; assay type: ADME, organism-based; details: in vivo, read-out: Vdss
[5] = Clearance in Sprague-Dawley rat at 5 mg/kg, iv by LC-MS/MS analysis; assay type: ADME, organism-based; details: in vivo
[6] = test system: Rattus norvegicus; assay: (§1) Terminal eliminational half life in Sprague-Dawley rat at 5 mg/kg, iv by LC-MS/MS analysis; assay type: ADME, organism-based; details: in vivo
[7] = molecular target: CYP2C19 (Homo sapiens, UniProt P33261); assay: Inhibition of CYP2C19 (unknown origin) at 10 uM; assay type: ADME
Chain of CYP2C19 (P33261 whole entry): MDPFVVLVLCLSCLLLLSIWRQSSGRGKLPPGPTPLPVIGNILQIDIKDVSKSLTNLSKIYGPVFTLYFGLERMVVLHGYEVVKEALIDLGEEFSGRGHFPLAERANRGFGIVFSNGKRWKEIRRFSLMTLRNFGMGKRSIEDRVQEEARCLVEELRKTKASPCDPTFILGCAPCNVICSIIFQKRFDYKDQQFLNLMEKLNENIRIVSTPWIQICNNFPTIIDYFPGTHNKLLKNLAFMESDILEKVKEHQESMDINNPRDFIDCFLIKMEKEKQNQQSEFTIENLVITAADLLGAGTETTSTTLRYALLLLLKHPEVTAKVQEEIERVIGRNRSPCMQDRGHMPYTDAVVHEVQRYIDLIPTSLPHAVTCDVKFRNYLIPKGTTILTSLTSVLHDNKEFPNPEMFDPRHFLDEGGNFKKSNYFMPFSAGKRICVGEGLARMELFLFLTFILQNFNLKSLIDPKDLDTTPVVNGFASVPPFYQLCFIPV

[8] = molecular target: Voltage-gated inwardly rectifying potassium channel KCNH2 (Homo sapiens, UniProt Q12809); assay: Inhibition of human ERG by cell based assay
Chain of Voltage-gated inwardly rectifying potassium channel KCNH2 (Q12809 whole entry): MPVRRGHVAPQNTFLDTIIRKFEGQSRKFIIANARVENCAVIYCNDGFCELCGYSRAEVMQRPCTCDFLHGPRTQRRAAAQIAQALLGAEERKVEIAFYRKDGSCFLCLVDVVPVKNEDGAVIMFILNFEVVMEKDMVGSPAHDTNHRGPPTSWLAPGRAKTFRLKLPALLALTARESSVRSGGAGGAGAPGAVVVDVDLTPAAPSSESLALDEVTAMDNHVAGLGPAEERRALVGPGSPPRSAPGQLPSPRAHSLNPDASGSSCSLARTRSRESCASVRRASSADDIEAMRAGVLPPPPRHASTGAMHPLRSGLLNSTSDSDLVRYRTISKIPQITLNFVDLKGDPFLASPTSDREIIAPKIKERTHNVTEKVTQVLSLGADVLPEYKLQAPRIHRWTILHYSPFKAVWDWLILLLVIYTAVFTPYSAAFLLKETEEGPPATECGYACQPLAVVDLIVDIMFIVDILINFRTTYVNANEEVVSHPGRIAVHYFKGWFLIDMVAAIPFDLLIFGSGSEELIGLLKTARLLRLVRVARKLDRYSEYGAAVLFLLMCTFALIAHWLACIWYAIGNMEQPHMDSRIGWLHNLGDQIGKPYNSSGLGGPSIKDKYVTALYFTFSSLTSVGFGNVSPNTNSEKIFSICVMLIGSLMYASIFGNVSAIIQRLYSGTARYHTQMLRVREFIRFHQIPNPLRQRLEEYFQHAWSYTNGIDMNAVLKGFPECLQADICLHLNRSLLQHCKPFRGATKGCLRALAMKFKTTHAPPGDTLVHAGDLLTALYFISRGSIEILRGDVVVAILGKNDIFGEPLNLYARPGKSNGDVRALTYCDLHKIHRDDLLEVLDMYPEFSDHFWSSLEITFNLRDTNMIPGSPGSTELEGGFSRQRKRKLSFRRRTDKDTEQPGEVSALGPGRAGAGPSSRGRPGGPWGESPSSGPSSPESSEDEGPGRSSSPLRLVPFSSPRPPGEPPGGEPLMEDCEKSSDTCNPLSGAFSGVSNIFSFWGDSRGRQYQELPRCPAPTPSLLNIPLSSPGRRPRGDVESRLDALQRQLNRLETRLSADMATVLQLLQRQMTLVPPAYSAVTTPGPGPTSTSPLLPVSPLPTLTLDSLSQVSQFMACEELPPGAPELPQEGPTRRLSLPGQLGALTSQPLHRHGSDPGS

[9] = Plasma protein binding in human; assay type: ADME, cell-free; details: read-out: PPB (converted)
[10] = molecular target: CYP2C9 (Homo sapiens, UniProt P11712); assay: Inhibition of CYP2C9 (unknown origin) at 10 uM; assay type: ADME
Chain of CYP2C9 (P11712 whole entry): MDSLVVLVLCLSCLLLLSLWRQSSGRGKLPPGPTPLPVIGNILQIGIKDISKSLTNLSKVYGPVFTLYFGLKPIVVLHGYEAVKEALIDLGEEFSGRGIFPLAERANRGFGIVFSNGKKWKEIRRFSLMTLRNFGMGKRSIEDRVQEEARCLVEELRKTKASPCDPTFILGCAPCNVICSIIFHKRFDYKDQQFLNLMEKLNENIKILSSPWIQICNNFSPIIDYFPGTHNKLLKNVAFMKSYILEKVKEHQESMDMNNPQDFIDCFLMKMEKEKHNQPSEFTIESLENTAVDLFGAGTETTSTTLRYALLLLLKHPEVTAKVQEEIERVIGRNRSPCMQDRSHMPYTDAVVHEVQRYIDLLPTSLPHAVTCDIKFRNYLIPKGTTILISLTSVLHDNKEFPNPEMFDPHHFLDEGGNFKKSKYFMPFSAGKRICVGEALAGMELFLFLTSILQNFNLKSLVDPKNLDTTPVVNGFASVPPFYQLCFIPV

[11] = molecular target: CYP2D6 (Homo sapiens, UniProt P10635); assay: Inhibition of CYP2D6 (unknown origin) at 10 uM; assay type: ADME
Chain of CYP2D6 (P10635 whole entry): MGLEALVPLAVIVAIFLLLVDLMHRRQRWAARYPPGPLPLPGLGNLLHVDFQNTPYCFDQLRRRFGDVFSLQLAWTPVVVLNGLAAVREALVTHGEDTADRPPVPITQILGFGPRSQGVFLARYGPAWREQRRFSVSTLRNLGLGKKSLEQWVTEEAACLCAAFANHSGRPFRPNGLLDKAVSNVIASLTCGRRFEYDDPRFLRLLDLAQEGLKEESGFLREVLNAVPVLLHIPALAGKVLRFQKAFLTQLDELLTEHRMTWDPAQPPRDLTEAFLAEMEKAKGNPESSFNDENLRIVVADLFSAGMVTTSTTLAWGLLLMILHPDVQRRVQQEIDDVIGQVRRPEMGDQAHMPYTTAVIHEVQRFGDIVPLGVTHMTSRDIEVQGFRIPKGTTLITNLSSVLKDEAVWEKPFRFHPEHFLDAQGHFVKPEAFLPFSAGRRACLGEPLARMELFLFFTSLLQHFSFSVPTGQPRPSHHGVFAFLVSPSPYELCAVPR

[12] = molecular target: CYP3A4 (Homo sapiens, UniProt P08684); assay: Inhibition of CYP3A4 (unknown origin) at 10 uM; assay type: ADME
Chain of CYP3A4 (P08684 whole entry): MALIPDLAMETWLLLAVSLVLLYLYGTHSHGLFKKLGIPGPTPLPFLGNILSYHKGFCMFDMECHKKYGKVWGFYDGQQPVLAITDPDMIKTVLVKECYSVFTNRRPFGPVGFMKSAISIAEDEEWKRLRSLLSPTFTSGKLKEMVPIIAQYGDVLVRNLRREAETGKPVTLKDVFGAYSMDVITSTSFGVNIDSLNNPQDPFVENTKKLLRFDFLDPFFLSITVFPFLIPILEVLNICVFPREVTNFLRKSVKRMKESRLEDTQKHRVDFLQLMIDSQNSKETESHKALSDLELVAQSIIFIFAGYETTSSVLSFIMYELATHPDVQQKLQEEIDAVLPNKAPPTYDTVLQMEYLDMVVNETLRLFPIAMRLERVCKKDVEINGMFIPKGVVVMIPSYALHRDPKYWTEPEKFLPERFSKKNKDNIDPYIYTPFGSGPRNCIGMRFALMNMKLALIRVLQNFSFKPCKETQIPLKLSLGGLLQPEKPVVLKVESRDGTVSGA

[13] = molecular target: T1, CYP1A2 (Homo sapiens, UniProt P05177); assay: Inhibition of CYP1A2 (unknown origin) at 10 uM; assay type: ADME
T1 sequence (P05177 whole entry): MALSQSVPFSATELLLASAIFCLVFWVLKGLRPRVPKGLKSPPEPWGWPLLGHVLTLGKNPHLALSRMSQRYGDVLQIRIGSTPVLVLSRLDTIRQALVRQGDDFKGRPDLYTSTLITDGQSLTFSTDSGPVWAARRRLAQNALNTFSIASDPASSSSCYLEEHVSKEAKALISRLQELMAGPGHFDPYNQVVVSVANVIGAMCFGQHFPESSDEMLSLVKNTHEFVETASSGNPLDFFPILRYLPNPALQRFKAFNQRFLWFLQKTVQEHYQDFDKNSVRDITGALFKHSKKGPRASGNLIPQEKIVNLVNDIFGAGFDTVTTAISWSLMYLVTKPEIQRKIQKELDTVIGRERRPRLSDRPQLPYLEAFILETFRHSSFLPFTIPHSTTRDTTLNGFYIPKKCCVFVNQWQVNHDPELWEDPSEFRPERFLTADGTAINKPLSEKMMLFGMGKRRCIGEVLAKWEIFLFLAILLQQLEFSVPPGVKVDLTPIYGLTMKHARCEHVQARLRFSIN

[14] = test system: Salmonella typhimurium; assay: Mutagenicity in Salmonella typhimurium at 5 mg by Ames test; assay type: toxicity, organism-based, Salmonella enterica subsp. enterica serovar Typhimurium; details: in vivo
[15] = Half life in beagle dog at 0.1 mg/kg, po; assay type: ADME, organism-based, Canis lupus familiaris; details: in vivo
[16] = Cytotoxicity against BRCA2-deficient human Capan1 cells; assay type: functional, cell-based, CAPAN-1; details: Homo sapiens, CAPAN-1
[17] = test system: MRC5; assay: Cytotoxicity against human MRC5 cells; assay type: cell-based; details: Homo sapiens, MRC5
[18] = AUC (0 to t) in beagle dog at 0.1 mg/kg, po; assay type: ADME, organism-based, Canis lupus familiaris; details: in vivo
[19] = AUC (0 to infinity) in beagle dog at 0.1 mg/kg, po; assay type: ADME, organism-based, Canis lupus familiaris; set-up: dose 0.1 mg/kg, route oral, time infinity; details: in vivo
[20] = Cmax in beagle dog at 0.1 mg/kg, po; assay type: ADME, organism-based, Canis lupus familiaris; set-up: dose 0.1 mg/kg, route oral; details: in vivo
[21] = Tmax in beagle dog at 0.1 mg/kg, po; assay type: ADME, organism-based, Canis lupus familiaris; details: in vivo
[22] = test system: Canis familiaris; assay: Clast in beagle dog at 0.1 mg/kg, po; assay type: ADME, organism-based, Canis lupus familiaris; details: in vivo
[23] = Apparent oral clearance in beagle dog at 0.1 mg/kg, po; assay type: ADME, organism-based, Canis lupus familiaris; details: in vivo
[24] = Absolute oral bioavailability in beagle dog at 0.1 mg/kg; assay type: ADME, organism-based, Canis lupus familiaris; details: in vivo
[25] = Half life in human; assay type: ADME, organism-based; details: in vivo
[26] = test system: Mus musculus; assay: Toxicity in athymic nu/nu mouse assessed as mortality at 0.1 to 0.33 mg/kg, po qd for 28 days; assay type: organism-based; details: in vivo, 672 h
[27] = test system: Mus musculus; assay: Toxicity in athymic nu/nu mouse assessed as change in body weight at 0.1 to 0.33 mg/kg, po qd for 28 days; assay type: organism-based; details: in vivo, 672 h
[28] = test system: LoVo; assay: cells; details: Homo sapiens, 120 h
[29] = as §1; assay type: ADME, organism-based; details: Sprague-Dawley, in vivo, read-out: beta t1/2 (converted)
[30] = test system: Mus musculus; assay: Decrease in PAR level in athymic nu/nu mouse xenografted with human MX1 cells at 100 mg/kg, po measured after 2 and 8 hrs by ELISA; assay type: functional, organism-based
[31] = test system: MX1; assay: Antitumor activity against BRCA1 deficient human MX1 cells xenografted in athymic nu/nu mouse at 100 mg/kg, po qd; assay type: functional, organism-based
[32] = test system: LoVo
[33] = molecular target: Poly [ADP-ribose] polymerase 1 (Homo sapiens, UniProt P09874); assay: Inhibition of human PARP1 using [3H]NAD as substrate after 1 min by microplate scintillation counting analysis
Chain of Poly [ADP-ribose] polymerase 1 (P09874 whole entry): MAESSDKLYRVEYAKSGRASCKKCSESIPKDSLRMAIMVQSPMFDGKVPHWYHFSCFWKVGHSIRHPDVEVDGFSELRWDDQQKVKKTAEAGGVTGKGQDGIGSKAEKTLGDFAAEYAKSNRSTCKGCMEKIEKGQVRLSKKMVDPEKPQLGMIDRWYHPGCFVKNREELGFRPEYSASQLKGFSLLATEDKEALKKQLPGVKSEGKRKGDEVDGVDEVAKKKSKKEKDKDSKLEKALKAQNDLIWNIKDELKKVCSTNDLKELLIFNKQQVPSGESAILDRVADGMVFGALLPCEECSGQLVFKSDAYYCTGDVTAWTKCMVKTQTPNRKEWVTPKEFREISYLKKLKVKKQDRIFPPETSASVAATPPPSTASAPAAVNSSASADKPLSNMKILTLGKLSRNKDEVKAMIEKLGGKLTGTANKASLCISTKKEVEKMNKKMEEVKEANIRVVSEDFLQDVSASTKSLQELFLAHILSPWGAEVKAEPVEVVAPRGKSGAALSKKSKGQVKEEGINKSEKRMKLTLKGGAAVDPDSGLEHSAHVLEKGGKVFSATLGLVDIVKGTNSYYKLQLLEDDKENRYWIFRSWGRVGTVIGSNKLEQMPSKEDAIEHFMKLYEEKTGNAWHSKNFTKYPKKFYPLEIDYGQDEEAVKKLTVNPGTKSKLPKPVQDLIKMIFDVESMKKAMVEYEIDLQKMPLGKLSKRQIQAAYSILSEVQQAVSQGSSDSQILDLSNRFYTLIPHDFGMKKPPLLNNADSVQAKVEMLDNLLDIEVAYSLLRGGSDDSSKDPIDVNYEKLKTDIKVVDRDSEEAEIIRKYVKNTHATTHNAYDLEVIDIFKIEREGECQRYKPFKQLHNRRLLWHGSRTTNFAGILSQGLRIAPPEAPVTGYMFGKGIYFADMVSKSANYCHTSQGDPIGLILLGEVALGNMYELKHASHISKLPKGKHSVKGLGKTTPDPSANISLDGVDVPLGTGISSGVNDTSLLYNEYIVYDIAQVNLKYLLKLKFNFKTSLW

[34] = molecular target: PARP 1, 2 and 3 (Homo sapiens, UniProt P09874+Q9Y6F1+Q9UGN5); assay: Inhibition of PARP in human LoVo cells assessed as inhibition of poly(ADP)-ribose polymerization for 30 mins by fluorescence assay; assay type: cell-based
[35] = test system: Mus musculus; assay: Decrease in PAR level in athymic nu/nu mouse xenografted with human MX1 cells at 1 mg/kg, po administered as single dose measured after 2 ,8 and 24 hrs by ELISA; assay type: functional, organism-based
[36] = test system: Mus musculus; assay: Decrease in PAR level in athymic nu/nu mouse xenografted with human MX1 cells at 100 mg/kg, po measured after 24 hrs by ELISA; assay type: functional, organism-based
[37] = test system: MX1; assay: Antitumor activity against BRCA1 deficient human MX1 cells xenografted in athymic nu/nu mouse at 0.33 mg/kg, po qd administered for 28 days; assay type: functional, organism-based
[38] = test system: MX1; assay: Antitumor activity against BRCA1 deficient human MX1 cells xenografted in athymic nu/nu mouse at 0.1 mg/kg, po qd administered for 21 days; assay type: functional, organism-based
[39] = test system: MX1; assay: Antitumor activity against BRCA1 deficient human MX1 cells xenografted in athymic nu/nu mouse assessed as tumor growth inhibition at 0.165 mg/kg, po administered twice a day for 28 days; assay type: functional, organism-based
[40] = test system: MX1; assay: Potentiation of cisplatin-induced tumor growth inhibition of BRCA1 deficient human MX1 cells xenografted in po dosed athymic nu/nu mouse drug administered for 8 days and animals were treated with cisplatin at 6 mg/kg, ip on day 3; assay type: functional, organism-based
[41] = test system: MX1; assay: Potentiation of carboplatin-induced tumor growth inhibition of BRCA1 deficient human MX1 cells xenografted in athymic nu/nu mouse at 0.33 mg/kg po and animals were treated with carboplatin at 35 mg/kg, ip on day 1; assay type: functional, organism-based

| SMILES | bioavailability [1] [%] | AUC [2] [ng·h/mL] | Cmax [3] [ng/mL] | Vd [4] [L/kg] | clearance [5] [mL/min/kg] | EC50 [16] [µM] | EC50 [17] [µM] | GI50 [28] [µM] | half-life [29] [h] | IC50 [33] [µM] | EC50 [34] [µM] | also measured |
| --- | --- | --- | --- | --- | --- | --- | --- | --- | --- | --- | --- | --- |
| Cn1ncnc1[C@H]1c2n[nH]c(=O)c3cc(F)cc(c23)N[C@@H]1c1ccc(F)cc1 [TALAZOPARIB] | 56 | 56100 | 7950 | 0.3 | 2 | 0.005 | 0.31 | 0.004 |  |  |  | beta t1/2 [6]: 2.25 h; inhibition at 10 µM [7]: < 12%; IC50 [8]: > 100 µM; fraction unbound [9]: 0.213; inhibition at 10 µM [10]: < 12%; inhibition at 10 µM [11]: < 12%; inhibition at 10 µM [12]: < 12%; inhibition at 10 µM [13]: < 12%; Activity [14]: Non-toxic; half-life [15]: 17.9 h; AUC(0-t) [18]: 619 ng·h/mL; AUC(0-inf) [19]: 629 ng·h/mL; Cmax [20]: 72.2 ng/mL; Tmax [21]: 2 h; Clast [22]: 0.365 ng/mL; CL/F [23]: 2.7 mL/min/kg; bioavailability [24]: 121%; half-life [25]: 40 h; Activity [26]: Non-toxic; Activity [27]: Non-toxic |
| O=C(c1cc(Cc2n[nH]c(=O)c3ccccc23)ccc1F)N1CCN(C(=O)C2CC2)CC1 [OLAPARIB] | 11 | 559 | 437 | 0.83 | 34.3 | 0.259 | 5.83 |  | 0.53 |  |  | inhibition [30]: Active; Activity [31]: inactive; GI50 [32]: 0.237 µM |
| Cn1ncnc1[C@H]1c2n[nH]c(=O)c3cccc(c23)N[C@@H]1c1ccc(F)cc1 | 47 | 39900 | 7770 | 0.39 | 2 | 0.037 |  | 0.041 | 2.44 | 0.00146 | 0.0051 |  |
| Cn1ncnc1[C@H]1c2n[nH]c(=O)c3cc(F)cc(c23)N[C@@H]1c1ccc(F)cc1 |  |  |  |  |  |  |  |  |  |  |  | inhibition [35]: Active; inhibition [36]: inactive; Activity [37]: Active; Activity [38]: inactive; Activity [39]: Active; Activity [40]: Dose-dependent effect; Activity [41]: Active |
| Cn1ccnc1[C@H]1c2n[nH]c(=O)c3cccc(c23)N[C@@H]1c1ccc(F)cc1 | 91 | 36500 | 10500 | 0.5 | 4 | 0.305 |  | 0.261 | 2.3 | 0.00225 | 0.0069 |  |
